# Data: US11642345B2, “Replication stress pathway agent compositions and methods for treating cancer” (Boundless Bio, Inc., priority 2020, dated 2023)
# Tests used:
# HeLa cells [1] = test: HeLa colony formation assay, resistance formation to methotrexate (FIG. 32); assay type: cell-based; conditions: 10000 cells plated with methotrexate for 21 days, IC50, 1/3 IC50, or 1/9 IC50
# [2] = test system: Colo320 DM (ecDNA+) and Colo320 HSR (ecDNA−) cells; test: MTS cell proliferation assay, 7 days, Colo320 ecDNA+ vs ecDNA−; assay type: cell-based
# Method: (§1) Sensitivity of an ecDNA+ (Colo320 ecDNA+) and an ecDNA− (Colo320 ecDNA−) cell line models to WEE1 inhibition was determined by treating each with increasing concentrations of either adavosertib or PD0166285 over a 7 day period. Cell proliferation was determined using a MTS assay (FIG. 27, top panels), while viability was determined using CellTiter-glo assay (FIG. 27 bottom panels).
# (§2) Cell proliferation was determined using a MTS assay (FIG. 36, top panels), while viability was determined using CellTiter-glo assay (FIG. 36, bottom panels).
# HeLa cells [3] = test: HeLa cell confluence by high-content microscopy over three weeks, with or without 100 nM methotrexate; assay type: cell-based; conditions: three weeks; for development of methotrexate resistance: in combination with 100 nM methotrexate
# Method: Cell confluence was measured via high-content microscopy over the time course.
# HeLa cells were treated with a WEE1 inhibitor, 0.01-0.3 μM adavosertib alone, with 1 nM-100 nM PD0166285, with 100 nM methotrexate alone, or with a combination of 0.01-0.3 μM adavosertib and 100 nM methotrexate or a combination of 1 nM-100 nM PD0166285 and 100 nM methotrexate over the course of three weeks. Cell confluence was measured via high-content microscopy over the time course.
# HeLa cells were treated with a PARG inhibitor, 3-100 μM PD00017273 with (FIG. 35 top panel) or without (FIG. 35 bottom panel) 100 nM methotrexate over the course of 3 weeks. Cell confluence was measured via high-content microscopy over the time course.
# Cell confluence was measured via high-content microscopy over the time course. […] However.
# [4] = test system: KRASi resistant tumor cells cultured ex vivo; test: KRASi resistant tumor cells implanted into NOD-SCID mice, tumor growth; assay type: in vivo; conditions: adagrasib 50 mg/kg orally once per day
# Excerpt: KRASi resistant tumor cells cultured ex vivo from Example 5 were implanted into NOD-SCID mice. […] Mice were implanted with the KRAS-resistant tumor cells as above.
# [5] = test system: panel of ecDNA+ cell lines; test: Two-week soft-agar 3D colony formation assay, adavosertib (FIG. 31); assay type: cell-based; conditions: five-point dose range, two weeks
# Method: FIG. 31 illustrates sensitivity of ecDNA+ cells to inhibition of WEE1 using adavosertib in a 3-dimensional colony formation assay conducted in soft-agar. A panel of ecDNA+ cell lines were interrogated in a two-week soft agar drug sensitivity assay. All lines were treated with a five-point dose range of adavosertib for two weeks and stained with crystal violet to quantify individual colony counts.
# [6] = test system: Colo320 ecDNA+ and Colo320 ecDNA− cells; test: CellTiter-glo viability assay, 7 days, Colo320 ecDNA+ vs ecDNA−; assay type: cell-based
# Method: as §1, §2
# SNU16 cells = test: Long-term cell growth / resistance development in SNU16 cells; assay type: cell-based, human; conditions: FIG. 25; 12 weeks; 1 uM infigratinib, 1 uM erlotinib, 10 nM gemcitabine
# Method: Each treatment arm was terminated once the cell number reached 5×10^6.
# SNU16 cells were subdivided into five groups and each group of 1×10^6 cells was subjected to treatment with 1 μM infigratinib, 1 μM erlotinib, 1 μM infigratinib and 1 μM erlotinib, 0.1 μM adavosertib and cell growth was recorded over 9 weeks.
# SNU16 cells were subdivided into five groups and each group of 1×10^6 cells was subjected to treatment with infigratinib, erlotinib, PD00017273, infigratinib and erlotinib, or infigratinib and PD00017273 and cell growth was recorded over 9 weeks.
# SNU16 (CRL-5974) cell line was purchased from ATCC. SNU16 cells were grown in RPMI 1640 medium (Fisher Scientific) with 10% FBS and 100 U/ml penicillin/streptomycin (Fisher Scientific). For the resistance experiments, SNU16 cells were plated at 2 million per T75 flask and were treated with either 1 μM infigratinib (Selleck Chemicals), 1 μM erlotinib (Selleck Chemicals), 10 nM gemcitabine (Sigma Aldrich), or a combination. The media was changed and fresh drug was added at least once per week. The cells were counted over the span of several weeks to measure cell growth.
# [7] = test system: ecDNA+ cell lines (SNU16, Colo320 DM, H716, and H2170) and ecDNA− cell lines (DLD1, Colo320 HSR, Lovo, and SW48); test: Two-week soft-agar 3D colony formation assay, gemcitabine (FIG. 5); assay type: cell-based; conditions: five-point dose range, two weeks, colony counts
# Method: A panel of ecDNA+ and ecDNA− cell lines were interrogated in a two-week soft-agar drug sensitivity assay. All lines were treated with a five-point dose range of gemcitabine for two weeks and stained with crystal violet (FIG. 5, top panel) to quantify individual colony counts by ImageJ analysis (plotted in FIG. 5, bottom panel).
# KRAS amplified ecDNA = test: KRAS ecDNA by FISH in metaphase spreads from ex vivo cultures of treated tumors; design: species or system murine
# Method: ecDNA were measured in metaphase spreads prepared from ex vivo cultures established from tumors taken from the mice on day of sacrifice. ecDNA counts were determined using FISH for murine KRAS.
# Metaphase spreads were prepared from metaphase arrested and fixed ex vivo cultures established from tumors taken from mice in treatment groups and ecDNA was visualized by FISH for murine KRAS.
# [8] = test system: ecDNA+ (Colo320 DM) and ecDNA− (Colo320 HSR) cells; test: DNA fiber analysis, replication fork speed; assay type: cell-based; conditions: 16 hr treatment
# Method: FIGS. 42A-42B show intrinsic replication fork dysfunction in ecDNA(+) cancer cells is further compromised by RNR inhibition relative to […]. […] The two cell models were then pulse-labeled with the thymidine analogues chlorodeoxyuridine (CldU) and iododeoxyuridine (IdU) for 30 min each (FIG. 42A). Cells were lysed, DNA fibers spread out and immunostained using specific antibodies against CldU and IdU. […] A difference of -0.13 kb/min in replication fork speed between ecDNA+ and […] treated with RNRi was observed. Statistical significance was calculated using nonparametric Kolmogorov-Smirnov test. FIGS. 43A-43B show intrinsic replication fork dysfunction in ecDNA+ cancer cells is further compromised by CHK1 inhibition relative to […]. […] The two cell models were then pulse-labeled with the thymidine analogues chlorodeoxyuridine (CldU) and iododeoxyuridine (IdU) for 30 min each (FIG. 43A). Cells were lysed, DNA fibers spread out and immunostained using specific antibodies against CldU and IdU.
# [9] = test system: Colo320 ecDNA+ (COLO320 DM) and Colo320 ecDNA− (COLO320 HSR) cells; test: Sensitivity of Colo320 ecDNA+ and ecDNA− cells to RNR inhibitors (FIG. 12); assay type: cell-based; conditions: Colo320 DM and HSR cells
# [10] = test system: CT26WT E3 G12C KRAS mutant tumor cells; test: Treatment of CT26WT E3 G12C KRAS mutant tumors in mice, tumor growth (Examples 3 and 4); assay type: in vivo; conditions: adagrasib 50 mg/kg orally once per day
# Excerpt: (§3) Mice were implanted with CT26WT E3 G12C KRAS mutant tumor cells.
# as §3
# [11] = test system: infigratinib-resistant SNU16 cells; test: Secondary resistance, cell growth of infigratinib-resistant SNU16 cells over 5 weeks; assay type: cell-based, human; conditions: FIG. 26, 1 uM infigratinib, 1 uM erlotinib, 10 nM gemcitabine
# Method: The infigratinib-resistant SNU16 cells (generated as shown in FIG. 25) were subdivided into six groups and each group of 1×10^6 cells was subjected to treatment with 1 uM infigratinib, 1 uM erlotinib, 10 nM gemcitabine, or 1 uM erlotinib+10 nM gemcitabine and the cell growth was recorded over 5 weeks. Each treatment arm was terminated once the cell number reached 5×10^6.
# [12] = test system: ecDNA+ (COLO320-DM) cells; test: IC-90 and IC-70 doses of RNRi in COLO320-DM cells; assay type: cell-based
# Method: (§4) FIGS. 40A-40C show inhibition of RNR blocks nucleotide synthesis causing enhanced replication stress and reduced cellular transformation in ecDNA+ compared to ecDNA-tumor cells. […] In FIG. 40A, to evaluate cellular transformation, an in vitro soft agar colony formation assay was conducted wherein ecDNA bearing COLO320-DM and SNU16 cell models were grown alongside ecDNA− cell models, COLO320-HSR and DLD1 in this 3D-format assay for 21 days. Cells were treated individually only once on the day of the seeding of cells at increasing doses of RNRi, (5-chloro-2-[[rac-(1S,2R)-2-(6-fluoro-2,3-dimethyl-phenyl)-1-(2-oxo-3H-1,3,4-oxadiazol-5-yl)propyl]sulfamoyl]benzamide). In FIG. 40B, to determine change in ecDNA carrying MYC amplified oncogene counts, ecDNA+ (COLO320-DM) cells were treated with an IC-90 dose (10 uM) of RNRi for 21 days. Cells in log-growth phase were arrested in metaphase. FISH (Florescent in-situ hybridization) for MYC oncogene was performed on the fixed metaphase spreads and the nuclei were counterstained with DAPI. […] Cells were lysed and immunoblotted with pRPA32-S33 antibody as a marker of ssDNA-damage induced replication stress.
# [13] = test system: COLO320-DM and SNU16 (ecDNA+), COLO320-HSR and DLD1 (ecDNA−) cell models; test: In vitro soft agar colony formation assay, 21 days, RNRi (FIG. 40A); assay type: cell-based; conditions: treated once on day of seeding, increasing doses
# Method: as §4
# [14] = test system: HeLa ecDNA+ and HeLa ecDNA− cells; test: HeLa ecDNA+ vs ecDNA− response to Chk1 inhibition, RS and DNA damage markers (FIG. 41A); assay type: cell-based
# [15] = test system: ecDNA+ (Colo320 DM) and ecDNA− (Colo320 HSR) cells; test: p-RPA32 S4/S8 foci by immunofluorescence after CHK1i (FIG. 41B); assay type: cell-based; conditions: 16 hr treatment
# Excerpt: Increased Chk1 phosphorylation at S345 indicates higher activation of RS-activated ATR kinase, while increased gH2AX indicates increased damage resulting from DNA double stranded breaks triggered by replication stress. […] Hyperphosphorylated form of Replication Protein A (RPA) 32 Ser4/Ser8 was detected by immunofluorescence in fixed ecDNA+ (Colo320 DM) and ecDNA− (Colo320 HSR) cell line models that were previously treated with CHK1 i GDC-0575 for 16 hr. Representative bar graph represents % total nuclei positive for P-RPA32 S4/S8 foci (minimum threshold of >3 puncta/nuclei) detected by immunofluorescence in ecDNA+ and ecDNA− cells.
# parental CT26 WT E3 line = test: Culture of parental line with adagrasib; assay type: cell-based
smiles,measurement,setting,value
C=CCn1c(=O)c2cnc(Nc3ccc(N4CCN(C)CC4)cc3)nc2n1-c1cccc(C(C)(C)O)n1 [adavosertib],resistance formation to methotrexate,HeLa cells [1],abrogation of resistance formation to methotrexate
same,"sensitivity of Colo320 ecDNA+ compared with ecDNA− cells, proliferation changes",[2],enhanced sensitivity
same,development of methotrexate resistance,HeLa cells [3],prevented development of methotrexate resistance
same,tumor growth,"[4]; from about 180 mm^3, adavosertib 60 mg/kg orally once per day, PD0166285 0.3 mg/kg ip once per day",inhibited tumor growth
same,"sensitivity, colony counts",[5],demonstrated sensitivity
same,"sensitivity of Colo320 ecDNA+ compared with ecDNA− cells, viability changes",[6],enhanced sensitivity
Nc1ccn([C@@H]2O[C@H](CO)[C@@H](O)C2(F)F)c(=O)n1 [gemcitabine],cell growth / development of primary resistance,SNU16 cells,"delayed cell growth for the first two weeks, but the cells continued to grow quickly after that"
same,fold enhanced sensitivity of ecDNA+ cell lines compared with ecDNA− cell lines,[7],5-10 fold
same,KRAS ecDNA level,"KRAS amplified ecDNA; Example 3, tumors at day of sacrifice (D21 or D16)",no KRAS amplified ecDNA was seen
same,ecDNA copy number per metaphase spread where ecDNA present,KRAS amplified ecDNA; Example 4,1-3 per metaphase spread
same,metaphase spreads with little to no ecDNA,"KRAS amplified ecDNA; Example 4, treatment group 3",78/95
same,difference in replication fork speed between treated ecDNA+ and ecDNA− cells,[8],−0.13 kb/min
same,"induction of replication stress marker, phosphorylation at serine positions 317 and 345 of CHK1",[9],induced the replication stress marker
same,tumor growth,"[10]; Example 3, from average volume 350 mm^3, gemcitabine 10 mg/kg ip every other day or 120 mg/kg ip once per week",only KRASi (adagrasib) resulted in a significant delay in tumor growth
same,tumor growth,"[10]; Example 4, gemcitabine 10 or 20 mg/kg ip every other day",substantial tumor growth
same,cell growth / development of secondary resistance,[11],"delayed cell growth for the first two weeks, but the cells continued to grow quickly after that"
same,tumor growth,"[4]; from 290 mm^3, gemcitabine 10 mg/kg ip every other day",inhibited tumor growth
"Cc1ccc(F)c([C@@H](C)[C@H](NS(=O)(=O)c2ccc(Cl)cc2C(N)=O)c2n[nH]c(=O)o2)c1C (racemic) [5-chloro-2-[[rac-(1S,2R)-2-(6-fluoro-2,3-dimethyl-phenyl)-1-(2-oxo-3H-1,3,4-oxadiazol-5-yl)propyl]sulfamoyl]benzamide]",IC-70 dose,[12],7 µM
same,IC90,"[12]; Homo sapiens, COLO 320DM",10 µM
same,"cellular transformation, replication stress",[13],enhanced replication stress and reduced cellular transformation in ecDNA+ compared to ecDNA(−) tumor cells
N[C@@H]1CCCN(c2c(Br)cnc3[nH]cc(NC(=O)C4CC4)c23)C1 [GDC-0575],"induction of markers of RS and DNA damage (Chk1 phosphorylation at S345, gH2AX)",[14]; 200 nM for 24 h,much stronger induction of markers of RS and DNA damage than ecDNA− cells
same,sensitivity of HeLa ecDNA+ over HeLa ecDNA− cells,[14]; HeLa ecDNA+ grown in 1 uM methotrexate,increased sensitivity
same,development of methotrexate resistance,HeLa cells [3],prevented development of methotrexate resistance
same,"cell growth (cell confluence), agent alone","HeLa cells [3]; 10 nM GDC-0575, 100 nM methotrexate, 300 nM-10 μM AZD6738",no effect on cell growth
same,pRPA levels (% total nuclei positive for P-RPA32 S4/S8 foci),[15],increases pRPA levels in ecDNA+ (DM) cells vs. matched ecDNA− (HSR) cells
C=C(F)C(=O)N1CCN(c2nc(OC[C@@H]3CCCN3C)nc3c2CCN(c2cccc4cccc(Cl)c24)C3)C[C@@H]1CC#N [adagrasib],sensitivity to the drug in culture,parental CT26 WT E3 line,remained sensitive to the drug
same,day by which tumors began to exhibit resistance and tumor growth resumed,[10]; Example 3,≤ 14 days
same,delay in tumor growth before tumors developed resistance,[10]; Example 4,about 2 weeks
